Measured values: patent publication US6469008B2, “(R)-hydroxynefazodone antipsychotic therapy” (Sepracor Inc., priority 1999, dated 2002)

What was measured:
Human D2 receptor = target: T1, Human D2 receptor (Homo sapiens, UniProt P14416); test: Dopamine D2 receptor binding; conditions: [3H]spiperone, transfected A9L cell membranes
T1 construct: expressed in transfected cells; host or cells: A9L cells
Description: (§1) Dopamine and serotonin receptor binding assays were performed in a standard manner with the incubation of membrane preparations in an assay buffer in the presence of a known radioactively labeled specific ligand for the receptor subtypes. Nonspecific binding was determined by assessing binding in the presence of excess ligand. Specific binding was measured as the total labeled ligand bound after the nonspecific binding was subtracted. The effect of the tested agents was measured by determining the competition for the receptor binding across a concentration range. Subsequently, an IC50 was determined for the agents tested. More specific details are provided below for several of the assays performed.
(§2) Aliquots of transfected A9L cell membrane preparations corresponding to 20-40 μg protein are incubated for 60 min at 22° C. in 250 μl of 50 mM Tris-HCl buffer (pH 7.4) containing 120 mM NaCl, 5 mM KCl, 5 mM MgCl2, 1 mM EDTA, 0.3 nM [^3H]spiperone and increasing concentrations of the competing drugs. Nonspecific binding is determined in the presence of 10 μM (+)butaclamol. After incubation, the samples are filtered rapidly under vacuum through glass fiber filters (GF/B, Packard) and rinsed several times with ice-cold 50 mM Tris-HCl using a cell harvester (Packard). Bound radioactivity is measured with a scintillation counter (Topcount, Packard) using a liquid scintillation cocktail (Microscint 0, Packard). The reference compound for this assay is (+)butaclamol.

D3 = target: T2, D3 (Homo sapiens, UniProt P35462); test: Dopamine D3 receptor binding
T2 construct: host or cells: membrane preparations
T2 sequence (P35462 whole entry): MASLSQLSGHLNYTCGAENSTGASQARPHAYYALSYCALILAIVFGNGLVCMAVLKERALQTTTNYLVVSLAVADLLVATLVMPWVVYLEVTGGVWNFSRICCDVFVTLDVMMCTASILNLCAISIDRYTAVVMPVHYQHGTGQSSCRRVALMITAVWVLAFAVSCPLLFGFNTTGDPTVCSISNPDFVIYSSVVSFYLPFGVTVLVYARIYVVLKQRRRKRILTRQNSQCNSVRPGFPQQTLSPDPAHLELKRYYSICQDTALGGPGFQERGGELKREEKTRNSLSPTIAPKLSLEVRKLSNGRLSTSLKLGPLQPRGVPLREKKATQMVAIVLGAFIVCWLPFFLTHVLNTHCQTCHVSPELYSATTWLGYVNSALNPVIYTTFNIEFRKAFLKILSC
Description: as §1

Human D4.4 receptor = target: T3, Human D4.4 receptor (Homo sapiens, UniProt P21917); test: Dopamine D4 receptor binding (head prints D); conditions: head prints only D
T3 construct: expressed in transfected cells; host or cells: CHO cells
T3 sequence (P21917 1-419): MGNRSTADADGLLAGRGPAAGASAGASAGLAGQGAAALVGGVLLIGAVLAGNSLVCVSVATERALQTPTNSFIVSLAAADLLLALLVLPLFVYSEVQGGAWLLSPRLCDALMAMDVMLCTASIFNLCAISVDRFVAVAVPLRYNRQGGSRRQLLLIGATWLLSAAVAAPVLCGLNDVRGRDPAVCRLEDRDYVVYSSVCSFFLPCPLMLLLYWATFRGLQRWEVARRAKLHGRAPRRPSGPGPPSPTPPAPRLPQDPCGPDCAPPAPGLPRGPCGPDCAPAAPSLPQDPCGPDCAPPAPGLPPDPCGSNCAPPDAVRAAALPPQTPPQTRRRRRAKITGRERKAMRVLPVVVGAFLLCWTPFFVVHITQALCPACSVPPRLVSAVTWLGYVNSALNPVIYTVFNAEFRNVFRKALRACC
Description: as §1
as §2, with “transfected CHO” for “transfected A9L”, “to 100” for “to 20-40”, “is clozapine.” for “is (+)butaclamol.”

5-HT1D = target: T4, 5-HT1D (Homo sapiens, UniProt P28221); test: 5-HT1D receptor binding; conditions: read-out: Serotonin Receptor Binding 5-HT1D (IC50)
T4 construct: host or cells: membrane preparations
T4 sequence (P28221 whole entry, species assumed): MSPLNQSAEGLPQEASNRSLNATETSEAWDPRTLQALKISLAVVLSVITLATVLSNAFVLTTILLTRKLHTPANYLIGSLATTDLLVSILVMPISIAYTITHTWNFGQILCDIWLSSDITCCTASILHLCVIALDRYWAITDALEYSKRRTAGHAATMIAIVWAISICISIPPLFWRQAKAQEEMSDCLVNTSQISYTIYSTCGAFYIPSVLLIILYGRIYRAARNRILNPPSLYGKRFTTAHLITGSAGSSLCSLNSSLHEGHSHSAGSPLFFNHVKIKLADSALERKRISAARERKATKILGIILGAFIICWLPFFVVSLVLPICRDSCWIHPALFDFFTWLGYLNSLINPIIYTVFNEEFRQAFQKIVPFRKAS
Description: as §1

Human 5-HT2A receptor = target: T5, Human 5-HT2A receptor (Homo sapiens, UniProt P28223); test: 5-HT2A receptor binding; conditions: [3H]ketanserin, transfected CHO cell membranes; read-out: Serotonin Receptor Binding 5-HT2A (IC50)
T5 construct: expressed in transfected cells; host or cells: CHO cells
T5 sequence (P28223 whole entry): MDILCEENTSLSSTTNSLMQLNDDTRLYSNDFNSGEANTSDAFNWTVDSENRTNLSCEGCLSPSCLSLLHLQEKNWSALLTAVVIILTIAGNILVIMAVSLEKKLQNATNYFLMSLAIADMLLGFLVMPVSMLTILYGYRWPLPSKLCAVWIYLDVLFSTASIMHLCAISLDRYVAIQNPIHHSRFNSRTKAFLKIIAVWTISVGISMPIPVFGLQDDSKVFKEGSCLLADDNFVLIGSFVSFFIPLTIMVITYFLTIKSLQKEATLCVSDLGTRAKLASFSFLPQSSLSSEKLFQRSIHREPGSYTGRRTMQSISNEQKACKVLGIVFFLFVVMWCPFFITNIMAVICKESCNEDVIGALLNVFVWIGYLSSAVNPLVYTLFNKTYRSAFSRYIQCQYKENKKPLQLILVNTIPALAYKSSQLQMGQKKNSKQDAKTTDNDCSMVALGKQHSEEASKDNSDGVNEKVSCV
Description: as §1
Aliquots of transfected CHO cell membrane preparations corresponding to 20-50 μg protein are incubated for 15 min at 37° C. in 250 μl of 50 mM Tris-HCl buffer (pH 7.4) containing 2 nM [^3H]ketanserin and increasing concentrations of the competing drugs. Nonspecific binding is determined in the presence of 1 μM ketanserin. After incubation, the samples are filtered rapidly under vacuum through glass fiber filters (GF/B, Packard) and rinsed several times with ice-cold 50 mM Tris-HCl using a cell harvester (Packard). Bound radioactivity is measured with a scintillation counter (Topcount, Packard) using a liquid scintillation cocktail (Microscint 0, Packard).
The reference compound for this assay is ketanserin.

Human 5-HT2C receptor = target: T6, Human 5-HT2C receptor (Homo sapiens, UniProt P28335); test: 5-HT2C receptor binding; conditions: [3H]mesulergine, transfected CHO cell membranes; read-out: Serotonin Receptor Binding 5HT2C (IC50)
T6 construct: expressed in transfected cells; host or cells: CHO cells
T6 sequence (P28335 33-458): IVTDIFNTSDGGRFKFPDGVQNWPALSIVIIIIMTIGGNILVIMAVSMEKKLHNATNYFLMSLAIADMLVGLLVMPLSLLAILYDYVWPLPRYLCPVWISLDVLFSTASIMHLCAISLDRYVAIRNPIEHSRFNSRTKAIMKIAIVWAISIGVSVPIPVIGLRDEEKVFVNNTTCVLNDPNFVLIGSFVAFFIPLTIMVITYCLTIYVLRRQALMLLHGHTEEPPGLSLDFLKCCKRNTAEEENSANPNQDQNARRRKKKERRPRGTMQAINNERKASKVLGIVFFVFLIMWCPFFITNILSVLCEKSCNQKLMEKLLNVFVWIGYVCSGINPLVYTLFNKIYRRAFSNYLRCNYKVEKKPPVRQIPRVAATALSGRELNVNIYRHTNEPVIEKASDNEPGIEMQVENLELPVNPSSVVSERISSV
Description: as §1
Aliquots of transfected CHO cell membrane preparations corresponding to 5-10 μg protein are incubated for 30 min at 37° C. in 250 μl of 50 mM Tris-HCl buffer (pH 7.7) containing 10 μM pargyline, 0.7 nM [^3H]mesulergine and increasing concentrations of the competing drugs. Nonspecific binding is determined in the presence of 1 μM mesulergine. After incubation, the samples are filtered rapidly under vacuum through glass fiber filters (GF/B, Packard) and rinsed several times with ice-cold 50 mM Tris-HCl using a cell harvester (Packard). Bound radioactivity is measured with a scintillation counter (Topcount, Packard) using a liquid scintillation cocktail (Microscint 0, Packard). The reference compound for this assay is mesulergine.

5-HT5A = target: T7, 5-HT5A (Homo sapiens, UniProt P47898); test: 5-HT5A receptor binding; conditions: read-out: Serotonin Receptor Binding 5-HT5A (IC50)
T7 construct: host or cells: membrane preparations
T7 sequence (P47898 whole entry, species assumed): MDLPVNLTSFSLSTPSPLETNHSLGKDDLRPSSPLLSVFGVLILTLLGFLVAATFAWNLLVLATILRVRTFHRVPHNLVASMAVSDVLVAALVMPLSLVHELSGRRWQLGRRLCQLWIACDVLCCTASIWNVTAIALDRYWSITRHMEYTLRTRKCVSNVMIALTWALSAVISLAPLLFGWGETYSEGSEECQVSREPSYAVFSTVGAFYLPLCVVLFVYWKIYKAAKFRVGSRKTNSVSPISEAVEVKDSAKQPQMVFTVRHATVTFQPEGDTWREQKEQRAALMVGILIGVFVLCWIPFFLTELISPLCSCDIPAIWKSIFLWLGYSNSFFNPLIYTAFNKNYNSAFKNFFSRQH
Description: as §1

α1 Receptor = test: α1 receptor binding; conditions: read-out: α1 Receptor Binding Alpha1 (IC50)
[1] = tested on: 5-HT2 receptors versus dopamine receptors; test: Selectivity from dopamine and serotonin receptor binding data; conditions: compared with nefazodone or S-hydroxynefazodone
Description: as §1

[2] = AUC and Cmax increasing more than proportionally with dose and upon multiple dosing; cited from earlier work

T1 sequence (P14416 whole entry): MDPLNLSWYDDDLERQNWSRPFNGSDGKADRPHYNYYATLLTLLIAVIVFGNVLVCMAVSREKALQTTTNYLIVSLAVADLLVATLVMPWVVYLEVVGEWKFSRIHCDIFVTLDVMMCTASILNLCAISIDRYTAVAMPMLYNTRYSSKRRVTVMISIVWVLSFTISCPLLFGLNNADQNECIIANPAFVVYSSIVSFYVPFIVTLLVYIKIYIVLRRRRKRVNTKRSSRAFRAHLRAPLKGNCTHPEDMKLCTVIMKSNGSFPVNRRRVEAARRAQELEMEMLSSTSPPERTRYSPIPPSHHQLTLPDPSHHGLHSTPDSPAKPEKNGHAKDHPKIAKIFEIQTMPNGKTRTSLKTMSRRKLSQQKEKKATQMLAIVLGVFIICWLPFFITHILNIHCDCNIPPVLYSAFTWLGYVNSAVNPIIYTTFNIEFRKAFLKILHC

Row | IC50 (Human D2 receptor) | IC50 (D3) | IC50 (Human D4.4 receptor) | IC50 (5-HT1D) | IC50 (Human 5-HT2A receptor) | IC50 (Human 5-HT2C receptor) | IC50 (5-HT5A) | IC50 (α1 Receptor) | selectivity for 5-HT family of receptors, in particular 5-HT2, versus dopamine receptors (D2 and D4) [1] | SMILES | kinetics for dose and time (AUC and Cmax) [2]
1 | 0.788 µM | 1.91 µM | 0.994 µM | 0.234 µM | 0.018 µM | 0.034 µM | 1.97 µM | 0.419 µM |  | C[C@H](O)c1nn(CCCN2CCN(c3cccc(Cl)c3)CC2)c(=O)n1CCOc1ccccc1 [(S)-OH, (S)-2-{3-[4-(3-Chlorophenyl)-1-piperazinyl]propyl}-4-(2-phenoxyethyl)-5-[1-(hydroxy)-ethyl]-2,4-dihydro-[1,2,4]triazol-3-one] | 
2 | 1.69 µM | 3.49 µM | 1.91 µM | 1.99 µM | 0.022 µM | 0.033 µM | 2.04 µM | 0.367 µM | interacts more selectively | C[C@@H](O)c1nn(CCCN2CCN(c3cccc(Cl)c3)CC2)c(=O)n1CCOc1ccccc1 [(R)-OH, (R)-hydroxynefazodone] | 
3 | 1.42 µM | 2.56 µM | 1.31 µM | 1.15 µM | 0.02 µM | 0.046 µM | 2.23 µM | 0.381 µM |  | CC(O)c1nn(CCCN2CCN(c3cccc(Cl)c3)CC2)c(=O)n1CCOc1ccccc1 (racemic) [(RS)-OH, 2-[3-[4-(3-chlorophenyl)1-piperazinyl]propyl]-5-(1-hydroxyethyl)-2,4-dihydro-4-(phenoxyethyl)-3H-1,2,4-triazol-3-one, reference compound] | nonlinear kinetics
